Results on two molecules are retold here after publication PMC7395068, “The evolution of strategies to minimise the risk of human drug-induced liver injury (DILI) in drug discovery and development” (Archives of Toxicology, 2020).

Data set [1] in a line: Total human plasma exposure Cmax.tot. It is filed as in vivo. Particulars: across literature references.
In the next data set the test system is HepaRG cells. The conditions noted are these: HepaRG cells, BMCs in relation to 10 × human Cmax.tot; ref National Toxicology Program; cited from earlier work.

As to `CC(C)C(=O)Nc1ccc([N+](=O)[O-])c(C(F)(F)F)c1` [flutamide, reference compound], the “difference in Cmax.tot values utilised across studies” value in data set [1] is on record as 16.6 fold.

For `Cc1c(C)c2c(c(C)c1O)CCC(C)(COc1ccc(CC3SC(=O)NC3=O)cc1)O2` (centres unmarked) [troglitazone, reference compound], in the data set with HepaRG cells, the “DILI identification by high-throughput transcriptomics” value is listed as “identified”.
